Values of other authors in US20120238559A1, “NOVEL COMPOUNDS” (GLAXO GROUP LIMITED, priority 2009, published 2012).

How the values were obtained:
neutrophils [1] = test system: neutrophils
neutrophils [2] = conditions: treatment of neutrophils; Thelen et al. 1994
Class I PI3-kinases = conditions: each of the four Class I PI3-kinases; read-out: IC50 against each of the various Class I PI3-kinases

O=c1cc(N2CCOCC2)oc2c(-c3ccccc3)cccc12 [LY294002]
neutrophil migration and superoxide release (neutrophils [1]): block neutrophil migration and superoxide release

COC[C@H]1OC(=O)c2coc3c2[C@@]1(C)C1=C(C3=O)[C@@H]2CCC(=O)[C@@]2(C)C[C@H]1OC(C)=O [wortmannin]
neutrophil migration and superoxide release (neutrophils [1]): block neutrophil migration and superoxide release | fMLP-induced respiratory burst response (neutrophils [2]): prevents the fMLP-induced respiratory burst response | IC50 (Class I PI3-kinases): 1 to 10 nM
